What was measured:
barley = test: Herbicidal bioassay, barley (% necrosis); type: in vivo
Experimental: (§1) A laboratory bioassay was conducted to screen ten compounds (Fluazifop (25); Ethyl fluazifop (62); five fluazifop analogues: 27, 28, 63, 64 and 65; mesofulfuron (6); and two mesosulfuron analogues: 8 and 61. for activity against Lolium perenne, barley, peas and Chinese cabbage. Compounds were diluted in DMSO. Controls were performed using both DMSO and water.
(§2) Plants were obtained as seeds and were grown to the 2-4 true leaf stage. Plants were grown individually in seed trays. Each plant (in an approximately 3 cm diameter plug) was then detached from the tray for spraying. Environmental conditions were closely monitored and recorded and were within the optimal range of the target species.
(§3) The compounds were screened at a range of six concentrations, eg. 0.05%, 0.01%, 0.005%, 0.001%, 0.0005% and 0.0001%. Treatments will be applied directly onto the plants, using a potter tower.
(§4) One plant of each type will be sprayed using a potter tower. The 4 different types of weeds will be placed in a 10 cm diameter area underneath the potter sprayer and sprayed simultaneously. The growth of the plants and any Phytotoxicity effects will then be assessed at specified growth intervals, according to EPPO guideline PP1/135. Five replicates will be performed for each treatment, for each species.

peas = test: Herbicidal bioassay, peas (% necrosis); type: in vivo
Experimental: as §1, §2, §3, §4

## COc1cc(OC)nc(NC(=O)NS(=O)(=O)c2cc(CNS(C)(=O)=O)ccc2CO)n1 [Compound 8, 1-(4,6-Dimethoxypyrimidin-2-yl)-3-[2-(hydroxymethyl)-5-(methanesulfonamidomethyl)phenyl]sulfonyl-urea]
barley; Dose 0.000001, Day 0
  Sum of % necrosis in barley: C (less than 50% necrosis)
barley; Dose 0.000001, Day 1
  Sum of % necrosis in barley: C (less than 50% necrosis)
barley; Dose 0.000001, Day 3
  Sum of % necrosis in barley: C (less than 50% necrosis)
barley; Dose 0.000001, Day 7
  Sum of % necrosis in barley: C (less than 50% necrosis)
barley; Dose 0.000001, Day 10
  Sum of % necrosis in barley: C (less than 50% necrosis)
barley; Dose 0.000001, Day 14
  Sum of % necrosis in barley: C (less than 50% necrosis)
barley; Dose 0.000005, Day 0
  Sum of % necrosis in barley: C (less than 50% necrosis)
barley; Dose 0.000005, Day 1
  Sum of % necrosis in barley: C (less than 50% necrosis)
barley; Dose 0.000005, Day 3
  Sum of % necrosis in barley: C (less than 50% necrosis)
barley; Dose 0.000005, Day 7
  Sum of % necrosis in barley: C (less than 50% necrosis)
barley; Dose 0.000005, Day 10
  Sum of % necrosis in barley: C (less than 50% necrosis)
barley; Dose 0.000005, Day 14
  Sum of % necrosis in barley: C (less than 50% necrosis)
barley; Dose 0.00001, Day 0
  Sum of % necrosis in barley: C (less than 50% necrosis)
barley; Dose 0.00001, Day 1
  Sum of % necrosis in barley: C (less than 50% necrosis)
barley; Dose 0.00001, Day 3
  Sum of % necrosis in barley: C (less than 50% necrosis)
barley; Dose 0.00001, Day 7
  Sum of % necrosis in barley: C (less than 50% necrosis)
barley; Dose 0.00001, Day 10
  Sum of % necrosis in barley: C (less than 50% necrosis)
barley; Dose 0.00001, Day 14
  Sum of % necrosis in barley: C (less than 50% necrosis)
barley; Dose 0.00005, Day 0
  Sum of % necrosis in barley: C (less than 50% necrosis)
barley; Dose 0.00005, Day 1
  Sum of % necrosis in barley: C (less than 50% necrosis)
barley; Dose 0.00005, Day 3
  Sum of % necrosis in barley: C (less than 50% necrosis)
barley; Dose 0.00005, Day 7
  Sum of % necrosis in barley: C (less than 50% necrosis)
barley; Dose 0.00005, Day 10
  Sum of % necrosis in barley: C (less than 50% necrosis)
barley; Dose 0.00005, Day 14
  Sum of % necrosis in barley: C (less than 50% necrosis)
barley; Dose 0.0001, Day 0
  Sum of % necrosis in barley: C (less than 50% necrosis)
barley; Dose 0.0001, Day 1
  Sum of % necrosis in barley: C (less than 50% necrosis)
barley; Dose 0.0001, Day 3
  Sum of % necrosis in barley: C (less than 50% necrosis)
barley; Dose 0.0001, Day 7
  Sum of % necrosis in barley: C (less than 50% necrosis)
barley; Dose 0.0001, Day 10
  Sum of % necrosis in barley: C (less than 50% necrosis)
barley; Dose 0.0001, Day 14
  Sum of % necrosis in barley: C (less than 50% necrosis)
barley; Dose 0.0005, Day 0
  Sum of % necrosis in barley: C (less than 50% necrosis)
barley; Dose 0.0005, Day 1
  Sum of % necrosis in barley: C (less than 50% necrosis)
barley; Dose 0.0005, Day 3
  Sum of % necrosis in barley: C (less than 50% necrosis)
barley; Dose 0.0005, Day 7
  Sum of % necrosis in barley: C (less than 50% necrosis)
barley; Dose 0.0005, Day 10
  Sum of % necrosis in barley: C (less than 50% necrosis)
barley; Dose 0.0005, Day 14
  Sum of % necrosis in barley: C (less than 50% necrosis)
peas; Dose 0.000001, Day 0
  Sum of % necrosis in Pea: C (less than 50% necrosis)
peas; Dose 0.000001, Day 1
  Sum of % necrosis in Pea: C (less than 50% necrosis)
peas; Dose 0.000001, Day 3
  Sum of % necrosis in Pea: B (50%-80% necrosis)
peas; Dose 0.000001, Day 7
  Sum of % necrosis in Pea: A (over 80% necrosis)
peas; Dose 0.000001, Day 10
  Sum of % necrosis in Pea: A (over 80% necrosis)
peas; Dose 0.000001, Day 14
  Sum of % necrosis in Pea: A (over 80% necrosis)
peas; Dose 0.000005, Day 0
  Sum of % necrosis in Pea: C (less than 50% necrosis)
peas; Dose 0.000005, Day 1
  Sum of % necrosis in Pea: C (less than 50% necrosis)
peas; Dose 0.000005, Day 3
  Sum of % necrosis in Pea: B (50%-80% necrosis)
peas; Dose 0.000005, Day 7
  Sum of % necrosis in Pea: B (50%-80% necrosis)
peas; Dose 0.000005, Day 10
  Sum of % necrosis in Pea: A (over 80% necrosis)
peas; Dose 0.000005, Day 14
  Sum of % necrosis in Pea: A (over 80% necrosis)
peas; Dose 0.00001, Day 0
  Sum of % necrosis in Pea: C (less than 50% necrosis)
peas; Dose 0.00001, Day 1
  Sum of % necrosis in Pea: C (less than 50% necrosis)
peas; Dose 0.00001, Day 3
  Sum of % necrosis in Pea: B (50%-80% necrosis)
peas; Dose 0.00001, Day 7
  Sum of % necrosis in Pea: A (over 80% necrosis)
peas; Dose 0.00001, Day 10
  Sum of % necrosis in Pea: A (over 80% necrosis)
peas; Dose 0.00001, Day 14
  Sum of % necrosis in Pea: A (over 80% necrosis)
peas; Dose 0.00005, Day 0
  Sum of % necrosis in Pea: C (less than 50% necrosis)
peas; Dose 0.00005, Day 1
  Sum of % necrosis in Pea: C (less than 50% necrosis)
peas; Dose 0.00005, Day 3
  Sum of % necrosis in Pea: B (50%-80% necrosis)
peas; Dose 0.00005, Day 7
  Sum of % necrosis in Pea: A (over 80% necrosis)
peas; Dose 0.00005, Day 10
  Sum of % necrosis in Pea: A (over 80% necrosis)
peas; Dose 0.00005, Day 14
  Sum of % necrosis in Pea: A (over 80% necrosis)
peas; Dose 0.0001, Day 0
  Sum of % necrosis in Pea: C (less than 50% necrosis)
peas; Dose 0.0001, Day 1
  Sum of % necrosis in Pea: C (less than 50% necrosis)
peas; Dose 0.0001, Day 3
  Sum of % necrosis in Pea: B (50%-80% necrosis)
peas; Dose 0.0001, Day 7
  Sum of % necrosis in Pea: A (over 80% necrosis)
peas; Dose 0.0001, Day 10
  Sum of % necrosis in Pea: A (over 80% necrosis)
peas; Dose 0.0001, Day 14
  Sum of % necrosis in Pea: A (over 80% necrosis)
peas; Dose 0.0005, Day 0
  Sum of % necrosis in Pea: C (less than 50% necrosis)
peas; Dose 0.0005, Day 1
  Sum of % necrosis in Pea: C (less than 50% necrosis)
peas; Dose 0.0005, Day 3
  Sum of % necrosis in Pea: B (50%-80% necrosis)
peas; Dose 0.0005, Day 7
  Sum of % necrosis in Pea: A (over 80% necrosis)
peas; Dose 0.0005, Day 10
  Sum of % necrosis in Pea: A (over 80% necrosis)
peas; Dose 0.0005, Day 14
  Sum of % necrosis in Pea: A (over 80% necrosis)
